Laboratory results published in article PMC4490784, “Compensatory induction of MYC expression by sustained CDK9 inhibition via a BRD4-dependent mechanism” (eLife, 2015).

What was measured:
Experiment in all cases: KINOMEscan binding assay
[1] = biological target: T1, p38-beta (Homo sapiens, UniProt Q15759); settings: read-out: % Retention on Solid Support
T1 construct: purchased DiscoveRx KINOMEscan
Method: (§1) As there are no commercial or in-house kinase assays available for CDK3, CDK5, CDK11 and CDK13, the inhibitory abilities of i-CDK9 toward these CDKs were thus evaluated in the DiscoveRx KINOMEscan assay, which is based on a proprietary active site-directed competition-binding platform ([Fabian et al., 2005]).
(§2) The inhibitory activity of i-CDK9 for CDK1-CycB (Upstate/Millipore), CDK2-CycA (Invitrogen), CDK4-CycD1 (Novartis), CDK7-CycH-MAT1 (Invitrogen), and CDK9-CycT1 (Invitrogen) was assessed in the AlphaScreen (PerkinElmer, Inc)-based kinase assay developed at Novartis. Briefly, each CDK–cyclin pair was pre-incubated with i-CDK9 for 15 min, followed by addition of kinase substrates (ELK for CDK1 and CDK2, RB for CDK4, and CDK7tide for CDK7 and CDK9). The mixture was incubated at room temperature for additional 4–5 hr. The reaction was stopped and read on Envision (PerkinElmer, Inc). Selectivity against a large panel of over 400 kinases was evaluated using the KINOMEscan platform (DiscoveRx, CA) employing a proprietary active site-directed competition binding assay ([Fabian et al., 2005]). The assay was conducted at two different concentrations of i-CDK9 (1 and 10 µM) by DiscoveRx.

[2] = biological target: T2, GAK (Homo sapiens, UniProt O14976); settings: read-out: % Retention on Solid Support
T2 construct: purchased DiscoveRx KINOMEscan
Method: as §1, §2

[3] = biological target: T3, CSNK2A2 (Homo sapiens, UniProt P19784); settings: read-out: % Retention on Solid Support
T3 construct: purchased DiscoveRx KINOMEscan
T3 sequence (P19784 whole entry): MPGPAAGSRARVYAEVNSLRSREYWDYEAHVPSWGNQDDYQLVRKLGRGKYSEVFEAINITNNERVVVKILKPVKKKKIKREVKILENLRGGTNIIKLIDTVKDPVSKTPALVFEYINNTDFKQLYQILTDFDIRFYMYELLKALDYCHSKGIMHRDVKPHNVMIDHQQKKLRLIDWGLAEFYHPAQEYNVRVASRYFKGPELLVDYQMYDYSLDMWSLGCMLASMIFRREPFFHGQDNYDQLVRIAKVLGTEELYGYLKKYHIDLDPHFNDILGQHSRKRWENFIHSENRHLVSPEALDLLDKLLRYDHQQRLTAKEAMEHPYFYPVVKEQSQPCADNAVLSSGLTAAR
Method: as §1, §2

[4] = test system: FLT3(ITD)
Method: as §1, §2

[5] = biological target: T4, FLT3(K663Q) (Homo sapiens, UniProt P36888, K663Q); settings: read-out: % Retention on Solid Support
T4 construct: purchased DiscoveRx KINOMEscan
Method: as §1, §2

[6] = biological target: T5, TSSK1B (Homo sapiens, UniProt Q9BXA7); settings: read-out: % Retention on Solid Support
T5 construct: purchased DiscoveRx KINOMEscan
T5 sequence (Q9BXA7 whole entry): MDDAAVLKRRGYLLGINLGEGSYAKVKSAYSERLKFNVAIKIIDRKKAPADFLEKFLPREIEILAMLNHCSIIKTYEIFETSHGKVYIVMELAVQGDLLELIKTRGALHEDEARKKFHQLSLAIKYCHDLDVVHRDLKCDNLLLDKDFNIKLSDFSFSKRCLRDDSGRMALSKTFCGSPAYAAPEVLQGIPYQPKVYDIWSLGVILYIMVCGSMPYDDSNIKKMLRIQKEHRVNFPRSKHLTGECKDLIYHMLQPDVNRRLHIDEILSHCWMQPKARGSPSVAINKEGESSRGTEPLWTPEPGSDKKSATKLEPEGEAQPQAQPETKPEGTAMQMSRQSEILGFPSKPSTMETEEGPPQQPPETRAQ
Method: as §1, §2

[7] = biological target: T6, MET (Homo sapiens, UniProt P08581)
T6 construct: purchased DiscoveRx KINOMEscan
Method: as §1, §2

[8] = biological target: T7, FGFR3 (Homo sapiens, UniProt P22607); settings: read-out: % Retention on Solid Support
T7 construct: purchased DiscoveRx KINOMEscan
Method: as §1, §2

[9] = biological target: T8, PRKCH (Homo sapiens, UniProt P24723); settings: read-out: % Retention on Solid Support
T8 construct: purchased DiscoveRx KINOMEscan
Method: as §1, §2

[10] = biological target: T9, RSK1(Kin.Dom.2-C-terminal) (Homo sapiens, UniProt Q15418); settings: read-out: % Retention on Solid Support
T9 construct: RSK1(Kin.Dom.2-C-terminal); purchased DiscoveRx KINOMEscan
Method: as §1, §2

[11] = biological target: T10, CDC2L1 (Homo sapiens, UniProt P21127); settings: read-out: % Retention on Solid Support
T10 construct: purchased DiscoveRx KINOMEscan
T10 sequence (P21127 whole entry): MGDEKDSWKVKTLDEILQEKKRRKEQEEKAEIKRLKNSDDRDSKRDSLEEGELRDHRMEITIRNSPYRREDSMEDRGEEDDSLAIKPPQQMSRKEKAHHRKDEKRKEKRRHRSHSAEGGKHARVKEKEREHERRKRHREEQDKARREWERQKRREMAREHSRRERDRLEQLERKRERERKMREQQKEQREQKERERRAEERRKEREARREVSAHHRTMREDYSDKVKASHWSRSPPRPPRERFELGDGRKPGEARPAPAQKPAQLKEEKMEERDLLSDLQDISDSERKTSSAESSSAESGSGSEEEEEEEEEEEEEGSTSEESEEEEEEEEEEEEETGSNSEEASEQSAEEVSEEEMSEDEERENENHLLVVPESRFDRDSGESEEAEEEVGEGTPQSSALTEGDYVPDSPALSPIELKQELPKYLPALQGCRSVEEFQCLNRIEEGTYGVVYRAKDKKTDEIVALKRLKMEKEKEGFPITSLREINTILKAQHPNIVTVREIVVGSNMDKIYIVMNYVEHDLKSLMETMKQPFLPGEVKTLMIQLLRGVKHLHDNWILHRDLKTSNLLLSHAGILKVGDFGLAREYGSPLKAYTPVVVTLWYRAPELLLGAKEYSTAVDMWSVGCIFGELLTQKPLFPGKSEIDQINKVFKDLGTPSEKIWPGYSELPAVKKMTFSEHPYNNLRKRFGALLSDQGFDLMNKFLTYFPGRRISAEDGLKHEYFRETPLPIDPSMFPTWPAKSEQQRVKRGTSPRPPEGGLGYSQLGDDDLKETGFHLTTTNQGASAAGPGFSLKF
Method: as §1, §2

[12] = biological target: T11, CSNK1D (Homo sapiens, UniProt P48730); settings: read-out: % Retention on Solid Support
T11 construct: purchased DiscoveRx KINOMEscan
Method: as §1, §2

[13] = biological target: T12, GRK1 (Homo sapiens, UniProt Q15835); settings: read-out: % Retention on Solid Support
T12 construct: purchased DiscoveRx KINOMEscan
T12 sequence (Q15835 whole entry): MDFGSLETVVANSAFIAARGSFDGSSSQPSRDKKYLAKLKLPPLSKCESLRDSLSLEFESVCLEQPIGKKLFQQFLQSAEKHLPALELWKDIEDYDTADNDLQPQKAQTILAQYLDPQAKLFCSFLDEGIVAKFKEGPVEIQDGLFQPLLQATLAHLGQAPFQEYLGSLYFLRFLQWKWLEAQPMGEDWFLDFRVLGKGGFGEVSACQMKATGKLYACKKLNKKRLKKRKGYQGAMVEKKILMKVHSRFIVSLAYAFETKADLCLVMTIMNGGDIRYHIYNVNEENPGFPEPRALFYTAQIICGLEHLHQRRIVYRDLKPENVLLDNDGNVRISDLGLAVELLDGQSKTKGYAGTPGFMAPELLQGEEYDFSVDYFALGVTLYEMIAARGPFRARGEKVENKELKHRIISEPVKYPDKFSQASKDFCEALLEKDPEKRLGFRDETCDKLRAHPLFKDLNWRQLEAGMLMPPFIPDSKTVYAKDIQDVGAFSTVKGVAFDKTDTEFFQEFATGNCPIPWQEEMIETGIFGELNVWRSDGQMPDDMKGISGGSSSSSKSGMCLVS
Method: as §1, §2

[14] = biological target: T13, CDK11 (Homo sapiens, UniProt Q9BWU1)
T13 construct: purchased DiscoveRx KINOMEscan
T13 sequence (Q9BWU1 whole entry): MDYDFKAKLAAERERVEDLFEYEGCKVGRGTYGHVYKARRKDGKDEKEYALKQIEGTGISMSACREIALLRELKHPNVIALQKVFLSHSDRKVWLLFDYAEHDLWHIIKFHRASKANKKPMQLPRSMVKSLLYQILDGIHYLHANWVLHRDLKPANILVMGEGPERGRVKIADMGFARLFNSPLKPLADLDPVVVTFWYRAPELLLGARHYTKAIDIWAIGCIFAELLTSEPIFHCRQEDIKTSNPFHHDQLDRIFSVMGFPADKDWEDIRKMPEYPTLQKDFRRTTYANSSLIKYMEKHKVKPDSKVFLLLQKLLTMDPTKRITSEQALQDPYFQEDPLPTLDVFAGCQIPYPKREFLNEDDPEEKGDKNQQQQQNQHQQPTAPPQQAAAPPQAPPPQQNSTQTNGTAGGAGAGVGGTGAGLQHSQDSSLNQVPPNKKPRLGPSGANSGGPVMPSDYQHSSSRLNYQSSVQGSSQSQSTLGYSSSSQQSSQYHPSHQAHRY
Method: as §1, §2

[15] = biological target: T14, HCK (Homo sapiens, UniProt P08631); settings: read-out: % Retention on Solid Support
T14 construct: purchased DiscoveRx KINOMEscan
Method: as §1, §2

[16] = biological target: T15, ERK5 (Homo sapiens, UniProt Q13164); settings: read-out: % Retention on Solid Support
T15 construct: purchased DiscoveRx KINOMEscan
T15 sequence (Q13164 whole entry): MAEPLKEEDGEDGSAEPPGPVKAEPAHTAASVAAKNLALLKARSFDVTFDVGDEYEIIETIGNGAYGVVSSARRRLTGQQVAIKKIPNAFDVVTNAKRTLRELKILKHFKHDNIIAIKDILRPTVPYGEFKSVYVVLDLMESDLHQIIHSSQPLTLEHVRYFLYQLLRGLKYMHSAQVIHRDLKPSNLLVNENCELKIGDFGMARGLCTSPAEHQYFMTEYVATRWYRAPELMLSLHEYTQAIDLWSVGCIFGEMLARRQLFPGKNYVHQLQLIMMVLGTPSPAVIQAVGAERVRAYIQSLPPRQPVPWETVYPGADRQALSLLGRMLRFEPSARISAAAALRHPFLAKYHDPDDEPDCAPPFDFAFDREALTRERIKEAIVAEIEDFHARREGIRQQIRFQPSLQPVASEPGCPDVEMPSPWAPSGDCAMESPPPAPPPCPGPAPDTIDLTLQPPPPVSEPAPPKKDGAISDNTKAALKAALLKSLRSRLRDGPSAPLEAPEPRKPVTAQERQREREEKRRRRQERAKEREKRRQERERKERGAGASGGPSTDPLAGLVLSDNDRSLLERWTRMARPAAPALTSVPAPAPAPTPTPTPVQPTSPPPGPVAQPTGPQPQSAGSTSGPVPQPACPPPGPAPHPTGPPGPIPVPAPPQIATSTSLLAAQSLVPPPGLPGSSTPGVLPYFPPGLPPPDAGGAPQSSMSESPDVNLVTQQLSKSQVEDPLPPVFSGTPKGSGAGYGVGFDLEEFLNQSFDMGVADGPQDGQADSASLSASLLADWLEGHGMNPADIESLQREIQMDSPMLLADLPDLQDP
Method: as §1, §2

[17] = biological target: T16, MAP4K2 (Homo sapiens, UniProt Q12851); settings: read-out: % Retention on Solid Support
T16 construct: purchased DiscoveRx KINOMEscan
Method: as §1, §2

[18] = biological target: T17, MET(M1250T) (Homo sapiens, UniProt P08581, M1250T)
T17 construct: purchased DiscoveRx KINOMEscan
Method: as §1, §2

[19] = biological target: T18, ABL1(T315I)-nonphosphorylated (Homo sapiens, UniProt P00519, T315I); settings: read-out: % Retention on Solid Support
T18 construct: purchased DiscoveRx KINOMEscan
Method: as §1, §2

[20] = biological target: T19, STK35 (Homo sapiens, UniProt Q8TDR2); settings: read-out: % Retention on Solid Support
T19 construct: purchased DiscoveRx KINOMEscan
T19 sequence (Q8TDR2 whole entry): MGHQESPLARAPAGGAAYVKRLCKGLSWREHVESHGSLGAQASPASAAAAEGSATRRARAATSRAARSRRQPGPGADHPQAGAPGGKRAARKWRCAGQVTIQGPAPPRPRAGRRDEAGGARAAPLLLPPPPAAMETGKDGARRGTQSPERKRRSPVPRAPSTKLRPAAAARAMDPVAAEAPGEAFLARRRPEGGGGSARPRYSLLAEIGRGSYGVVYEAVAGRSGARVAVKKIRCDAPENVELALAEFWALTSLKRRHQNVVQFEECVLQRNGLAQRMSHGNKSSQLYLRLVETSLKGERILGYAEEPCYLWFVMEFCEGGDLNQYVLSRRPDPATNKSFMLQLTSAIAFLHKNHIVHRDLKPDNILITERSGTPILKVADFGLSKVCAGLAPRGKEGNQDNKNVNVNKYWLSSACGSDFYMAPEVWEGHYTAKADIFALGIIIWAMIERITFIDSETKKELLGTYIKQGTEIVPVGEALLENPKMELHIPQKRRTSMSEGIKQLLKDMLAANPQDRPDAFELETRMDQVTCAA
Method: as §1, §2

[21] = biological target: T20, PIM3 (Homo sapiens, UniProt Q86V86); settings: read-out: % Retention on Solid Support
T20 construct: purchased DiscoveRx KINOMEscan
Method: as §1, §2

[22] = biological target: T21, MARK1 (Homo sapiens, UniProt Q9P0L2); settings: read-out: % Retention on Solid Support
T21 construct: purchased DiscoveRx KINOMEscan
Method: as §1, §2

[23] = test system: EGFR(L747-T751del,Sins)
Method: as §1, §2

[24] = biological target: T22, ABL1-nonphosphorylated (Homo sapiens, UniProt P00519); settings: read-out: % Retention on Solid Support
T22 construct: purchased DiscoveRx KINOMEscan
Method: as §1, §2

[25] = biological target: T23, MLK3 (Homo sapiens, UniProt Q16584)
T23 construct: purchased DiscoveRx KINOMEscan
Method: as §1, §2

[26] = biological target: T24, JNK3 (Homo sapiens, UniProt P53779)
T24 construct: purchased DiscoveRx KINOMEscan
Method: as §1, §2

[27] = biological target: T25, HIPK2 (Homo sapiens, UniProt Q9H2X6); settings: read-out: % Retention on Solid Support
T25 construct: purchased DiscoveRx KINOMEscan
Method: as §1, §2

[28] = biological target: T26, ITK (Homo sapiens, UniProt Q08881)
T26 construct: purchased DiscoveRx KINOMEscan
T26 sequence (Q08881 whole entry): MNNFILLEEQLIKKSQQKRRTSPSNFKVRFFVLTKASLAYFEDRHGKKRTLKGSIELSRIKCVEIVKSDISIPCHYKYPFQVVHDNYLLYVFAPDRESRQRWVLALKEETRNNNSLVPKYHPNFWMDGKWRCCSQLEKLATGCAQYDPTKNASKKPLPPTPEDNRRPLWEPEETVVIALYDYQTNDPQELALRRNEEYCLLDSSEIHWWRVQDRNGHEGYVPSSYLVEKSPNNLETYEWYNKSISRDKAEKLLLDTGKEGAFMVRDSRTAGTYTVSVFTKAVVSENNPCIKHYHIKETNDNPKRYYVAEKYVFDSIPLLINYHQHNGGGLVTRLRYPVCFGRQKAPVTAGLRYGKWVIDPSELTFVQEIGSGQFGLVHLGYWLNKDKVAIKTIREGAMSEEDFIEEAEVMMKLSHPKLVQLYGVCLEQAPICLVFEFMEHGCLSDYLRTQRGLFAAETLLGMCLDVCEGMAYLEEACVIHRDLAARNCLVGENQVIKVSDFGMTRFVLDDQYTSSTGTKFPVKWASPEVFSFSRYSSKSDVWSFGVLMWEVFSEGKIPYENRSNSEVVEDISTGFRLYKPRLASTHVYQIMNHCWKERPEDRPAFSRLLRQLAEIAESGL
Method: as §1, §2

[29] = biological target: T27, PRP4 (Homo sapiens, UniProt Q13523); settings: read-out: % Retention on Solid Support
T27 construct: purchased DiscoveRx KINOMEscan
Method: as §1, §2

T1 sequence (Q15759 whole entry): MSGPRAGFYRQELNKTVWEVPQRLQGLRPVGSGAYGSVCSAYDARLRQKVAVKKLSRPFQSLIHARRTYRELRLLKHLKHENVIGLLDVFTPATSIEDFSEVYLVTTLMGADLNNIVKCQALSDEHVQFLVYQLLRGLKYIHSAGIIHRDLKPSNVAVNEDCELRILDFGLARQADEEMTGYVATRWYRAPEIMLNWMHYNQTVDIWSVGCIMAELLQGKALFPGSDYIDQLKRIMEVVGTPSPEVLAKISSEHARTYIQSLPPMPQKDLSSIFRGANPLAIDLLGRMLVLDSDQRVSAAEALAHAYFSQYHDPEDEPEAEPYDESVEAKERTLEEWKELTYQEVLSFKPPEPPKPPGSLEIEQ

SMILES: N[C@H]1CC[C@H](Nc2cc(-c3cccc(NCc4cccc(F)c4)n3)c(Cl)cn2)CC1 [i-CDK9, N2′-(trans-4-aminocyclohexyl)-5′-chloro-N6-(3-fluorobenzyl)-2,4′-bipyridine-2′,6-diamine]
- remaining binding at 1 µM ([1]; 1 µM i-CDK9): 66%
- remaining binding at 10 µM ([1]; 10 µM i-CDK9): 100%
- remaining binding at 1 µM ([2]; 1 µM i-CDK9): 100%
- remaining binding at 10 µM ([2]; 10 µM i-CDK9): 89%
- remaining binding at 1 µM ([3]; 1 µM i-CDK9): 100%
- remaining binding at 10 µM ([3]; 10 µM i-CDK9): 78%
- % Retention on Solid Support ([4]; 1 µM i-CDK9): 100%
- % Retention on Solid Support ([4]; 10 µM i-CDK9): 72%
- remaining binding at 1 µM ([5]; 1 µM i-CDK9): 100%
- remaining binding at 10 µM ([5]; 10 µM i-CDK9): 74%
- remaining binding at 1 µM ([6]; 1 µM i-CDK9): 99%
- remaining binding at 10 µM ([6]; 10 µM i-CDK9): 68%
- % Retention on Solid Support ([7]; 1 µM i-CDK9): 94%
- % Retention on Solid Support ([7]; 10 µM i-CDK9): 96%
- remaining binding at 1 µM ([8]; 1 µM i-CDK9): 100%
- remaining binding at 10 µM ([8]; 10 µM i-CDK9): 95%
- remaining binding at 1 µM ([9]; 1 µM i-CDK9): 83%
- remaining binding at 10 µM ([9]; 10 µM i-CDK9): 80%
- remaining binding at 1 µM ([10]; 1 µM i-CDK9): 93%
- remaining binding at 10 µM ([10]; 10 µM i-CDK9): 84%
- remaining binding at 1 µM ([11]; 1 µM i-CDK9): 92%
- remaining binding at 10 µM ([11]; 10 µM i-CDK9): 36%
- remaining binding at 1 µM ([12]; 1 µM i-CDK9): 47%
- remaining binding at 10 µM ([12]; 10 µM i-CDK9): 33%
- remaining binding at 1 µM ([13]; 1 µM i-CDK9): 95%
- remaining binding at 10 µM ([13]; 10 µM i-CDK9): 100%
- % Retention on Solid Support ([14]; 1 µM i-CDK9): 94%
- % Retention on Solid Support ([14]; 10 µM i-CDK9): 100%
- remaining binding at 1 µM ([15]; 1 µM i-CDK9): 81%
- remaining binding at 10 µM ([15]; 10 µM i-CDK9): 100%
- remaining binding at 1 µM ([16]; 1 µM i-CDK9): 100%
- remaining binding at 10 µM ([16]; 10 µM i-CDK9): 92%
- remaining binding at 1 µM ([17]; 1 µM i-CDK9): 64%
- remaining binding at 10 µM ([17]; 10 µM i-CDK9): 10%
- % Retention on Solid Support ([18]; 1 µM i-CDK9): 86%
- % Retention on Solid Support ([18]; 10 µM i-CDK9): 100%
- remaining binding at 1 µM ([19]; 1 µM i-CDK9): 100%
- remaining binding at 10 µM ([19]; 10 µM i-CDK9): 83%
- remaining binding at 1 µM ([20]; 1 µM i-CDK9): 100%
- remaining binding at 10 µM ([20]; 10 µM i-CDK9): 91%
- remaining binding at 1 µM ([21]; 1 µM i-CDK9): 100%
- remaining binding at 10 µM ([21]; 10 µM i-CDK9): 23%
- remaining binding at 1 µM ([22]; 1 µM i-CDK9): 99%
- remaining binding at 10 µM ([22]; 10 µM i-CDK9): 100%
- % Retention on Solid Support ([23]; 1 µM i-CDK9): 82%
- % Retention on Solid Support ([23]; 10 µM i-CDK9): 61%
- remaining binding at 1 µM ([24]; 1 µM i-CDK9): 81%
- remaining binding at 10 µM ([24]; 10 µM i-CDK9): 100%
- % Retention on Solid Support ([25]; 1 µM i-CDK9): 85%
- % Retention on Solid Support ([25]; 10 µM i-CDK9): 100%
- % Retention on Solid Support ([26]; 1 µM i-CDK9): 94%
- % Retention on Solid Support ([26]; 10 µM i-CDK9): 34%
- remaining binding at 1 µM ([27]; 1 µM i-CDK9): 100%
- remaining binding at 10 µM ([27]; 10 µM i-CDK9): 37%
- % Retention on Solid Support ([28]; 1 µM i-CDK9): 100%
- % Retention on Solid Support ([28]; 10 µM i-CDK9): 86%
- remaining binding at 1 µM ([29]; 1 µM i-CDK9): 14%
- remaining binding at 10 µM ([29]; 10 µM i-CDK9): 100%
